Consider two compounds from patent US20250228823A1, “PHARMACEUTICAL COMPOSITIONS COMPRISING (3-(1-(1H-IMIDAZOL-4-YL)ETHYL)-2-METHYLPHENYL)METHANOL” (Allergan, Inc., priority 2010, published 2025).

The structures appear in SMILES notation.

In one experiment the target is T1, human alpha 2A receptor (Homo sapiens, UniProt P08913).
T1 sequence (P08913 1-465): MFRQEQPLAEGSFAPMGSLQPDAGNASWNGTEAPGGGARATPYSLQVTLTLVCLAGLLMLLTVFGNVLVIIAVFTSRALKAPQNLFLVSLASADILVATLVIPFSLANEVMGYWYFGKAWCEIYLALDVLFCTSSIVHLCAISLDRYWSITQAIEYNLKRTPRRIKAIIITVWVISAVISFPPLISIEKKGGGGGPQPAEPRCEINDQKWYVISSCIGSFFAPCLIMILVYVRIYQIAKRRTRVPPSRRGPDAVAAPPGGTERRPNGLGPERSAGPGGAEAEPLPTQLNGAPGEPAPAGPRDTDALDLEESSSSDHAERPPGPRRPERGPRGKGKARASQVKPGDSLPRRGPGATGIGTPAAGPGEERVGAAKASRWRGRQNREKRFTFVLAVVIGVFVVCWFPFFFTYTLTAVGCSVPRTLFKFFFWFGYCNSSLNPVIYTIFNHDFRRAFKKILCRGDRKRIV
The following applies: FLIPR agonist assay, HEK 293 cells with chimeric G protein; norepinephrine is the standard full agonist. As to the method:
(§1) HEK 293 cells stably expressing the bovine a1A receptor, human alpha 2A receptor and the chimeric G protein Gai5, are plated in poly-D-lysine coated 384-well plates at 20,000-40,000 cells per well and grown overnight in DMEM supplemented with 10% fetal bovine serum. For FLIPR (fluorometric image plate reader) evaluation, cells are washed twice with HBSS/HEPES Buffer (1× Hanks Buffered Salt Solution, 20 mM HEPES, pH 7.4) prior to the addition of Fluo-4-AM (4 uM Fluo-4-AM, 0.04% pluronic acid in HBSS/HEPES Buffer), a calcium-sensitive dye. Cells are loaded with dye for 40 minutes at 37° C., then washed 4 times with HBSS/HEPES Buffer. For both the agonist and antagonist assay, the test compounds are tested between 0.64 nM-10,000 nM. For an agonist assay, the reaction is initiated by the addition of the appropriate dilutions of compounds and the transient calcium signal captured. The peak height of the calcium curve is determined and utilized for calculation of EC50 and efficacy using ActivityBase. Norepinephrine is the standard full agonist used for evaluating alpha-1 and alpha-2 receptor activity.

The target of another experiment is T2, bovine a1A receptor (Bos taurus, UniProt P18130).
T2 sequence (P18130 1-466): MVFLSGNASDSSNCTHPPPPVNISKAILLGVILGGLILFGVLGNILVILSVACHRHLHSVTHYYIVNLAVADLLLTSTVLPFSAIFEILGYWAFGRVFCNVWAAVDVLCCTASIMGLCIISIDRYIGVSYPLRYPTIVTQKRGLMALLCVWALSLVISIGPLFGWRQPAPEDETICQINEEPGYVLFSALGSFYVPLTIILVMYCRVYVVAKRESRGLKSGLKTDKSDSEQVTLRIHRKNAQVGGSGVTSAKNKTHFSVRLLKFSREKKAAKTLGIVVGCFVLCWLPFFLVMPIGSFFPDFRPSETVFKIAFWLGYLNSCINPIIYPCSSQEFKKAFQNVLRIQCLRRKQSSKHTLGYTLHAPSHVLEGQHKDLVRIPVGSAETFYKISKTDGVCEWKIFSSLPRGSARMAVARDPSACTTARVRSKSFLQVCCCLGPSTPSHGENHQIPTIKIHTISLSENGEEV
Put plainly: cell-based. The following applies: for a1A efficacy: FLIPR agonist assay, HEK 293 cells, norepinephrine is the standard full agonist. As to the method:
as §1

The subject of experiment [1] is Normotensive male Dutch-Belted rabbits (IOP). Conditions: for IOP effect in the contralateral eye: single topical drop onto right eye, untreated eye. How it is done:
The experimental animals used, were Normotensive male Dutch-Belted rabbits (Myrtle's Rabbitry) over 6 months in age (n=4/compound/dose screened). A single drop (50 μl) of the drug formulation, was administered topically by pipette onto the right eye (treated eye) at approximately 0700 hours. IOP of the rabbits (treated and untreated eyes) was measured 0 hours before and at 0.5, 1, 2, 3, 4, 6 and 8 hours after topical eyedrop administration. IOP at the time of eyedrop administration (0 hours) was used as a baseline value. Prior to the tonometric measurements, 0.05% proparacaine (50 μl) was administered to each eye. Tonometric IOP measurements were obtained with a Mentor Pneumontonmeter. Additionally, all studies were masked. At least 1 week of wash-out time was allowed for each rabbit between dosings. All animals were examined for sedation, ocular irritation, and changes in pupil diameter throughout the course of the experiments.

For `Cc1c(CO)cccc1[C@H](C)c1c[nH]cn1` [Compound 1, (S)-[3-(1-(1H-imidazol-4-yl)ethyl)-2-methylphenyl] methanol], the a2A efficacy on human alpha 2A receptor worked out at 0.9. At bovine a1A receptor, the EC50 lay within 340 to 2400 nM and the a1A efficacy turned out to be 0.7. In addition, the “duration of IOP lowering in the treated eye” value in experiment [1] (0.15% concentration, single topical drop (50 μl), DB Rabbits) is “at least 6 hours”. In experiment [1] (FIG. 1), the “IOP lowering efficacy compared with brimonidine” value is listed as “comparable efficacy to brimonidine” and the “intraocular pressure duration compared with brimonidine” value is reported as “longer intraocular pressure duration than brimonidine”. Also, in experiment [1] (DB Rabbits), the “IOP effect in the contralateral eye” value was “very little effect”.
At human alpha 2A receptor, `Brc1c(NC2=NCCN2)ccc2nccnc12` [Brimonidine, reference compound] showed an a2A efficacy of 0.95. At bovine a1A receptor, this compound registered a concentration giving a half-maximal response (EC50) of 600 to 2400 nM and an a1A efficacy of 0.3. Moreover, the “IOP effect at 6 hrs in the treated eye” value in experiment [1] (0.15%, single topical drop, DB Rabbits, 6 hrs) is “minimal”. Besides, the “IOP effect in the contralateral eye” value in experiment [1] (DB Rabbits) is reported as “strong contralateral effect”.

The EC50 is the midpoint of the concentration-response curve. Read a high EC50 as a need for much substance.
